Assay results from patent US20030176314A1, “Compounds for the treatment of pain” (priority 2001, published 2003).

What follows are molecules tested against T1, rat NPFF1 receptor (Rattus norvegicus, UniProt Q9EP86) (assay: Functional assay (agonist potency, intrinsic activity) at cloned rat NPFF1 receptor). Details: Table 7, intrinsic activity.
T1 construct: expressed in transfected cells; host or cells: not given
T1 sequence (Q9EP86 whole entry): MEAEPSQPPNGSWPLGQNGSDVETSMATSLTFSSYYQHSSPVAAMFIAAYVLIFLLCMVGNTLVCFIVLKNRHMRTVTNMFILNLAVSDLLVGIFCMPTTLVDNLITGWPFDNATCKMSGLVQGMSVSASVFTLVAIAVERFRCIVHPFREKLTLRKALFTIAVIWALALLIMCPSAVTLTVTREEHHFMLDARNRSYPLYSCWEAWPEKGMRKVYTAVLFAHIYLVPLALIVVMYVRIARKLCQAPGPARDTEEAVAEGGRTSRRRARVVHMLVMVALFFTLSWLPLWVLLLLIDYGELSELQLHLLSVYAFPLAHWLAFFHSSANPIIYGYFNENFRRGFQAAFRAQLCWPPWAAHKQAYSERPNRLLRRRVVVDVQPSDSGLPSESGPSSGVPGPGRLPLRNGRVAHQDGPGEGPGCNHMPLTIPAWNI
Type: cell-based
For `Cc1nc(NC(=N)N)nc2ccc(C3CCCCC3)cc12` [Compound 1029A, N-(6-cyclohexyl-4-methyl-2-quinazolinyl)guanidine], the “rNPFF1 IA” value was 28% NPFF. In the case of `Cc1nc(NC(=N)N)nc2ccc(Oc3ccccc3)cc12` [Compound 1032A, N-(4-methyl-6-phenoxy-2-quinazolinyl)guanidine], the “rNPFF1 IA” value is reported as 31% NPFF. For `Cc1nc(NC(=N)N)nc2ccc(CCCC(C)O)cc12` (stereo not shown) [Compound 1034A, N-(6-[1-(4-hydroxyl-pentyl)]-4-methyl-2-quinazolino)guanidine], the “rNPFF1 IA” value was 63% NPFF. With `Cc1nc(NC(=N)N)nc2ccc(Cc3ccccc3)cc12` [Compound 2003A, N-(6-benzyl-4-methyl-2-quinazolinyl)guanidine] the “rNPFF1 IA” value was 56% NPFF. `CCCCc1ccc2nc(NC(=N)N)nc(C)c2c1` [Compound 2004A, N-(6-butyl-4-methyl-2-quinazolinyl)guanidine] was tested, and the “rNPFF1 IA” value was 40% NPFF. In the case of `CCCCCCc1ccc2nc(NC(=N)N)nc(C)c2c1` [Compound 2005A, N-(6-hexyl-4-methyl-2-quinazolinyl)guanidine], the “rNPFF1 IA” value is reported as 56% NPFF. With `CCCCCCCc1ccc2nc(NC(=N)N)nc(C)c2c1` [Compound 2006A, N-(6-heptyl-4-methyl-2-quinazolinyl)guanidine] the “rNPFF1 IA” value was 38% NPFF. With `CCCCc1ccc2nc(NC(=N)N)cc(C)c2c1` [Compound 5001A, N-(6-butyl-4-methyl-2-quinolinyl)guanidine] the “rNPFF1 IA” value was 28% NPFF.

Same assay, conditions: agonist: IA>15%; antagonist: Ki≦1.2 mM and IA≦15% at the rat cloned NPFF receptors
`N=C(N)NCCC[C@H](NS(=O)(=O)c1c(Cl)cccc1Cl)C(=O)N[C@@H](Cc1ccccc1)C(N)=O` [Compound 1019B] was tested, and the “classification as agonist or antagonist at the NPFF1 receptor” value was “agonists”.

The molecules below were run against T2, rat NPFF2 receptor (Rattus norvegicus, UniProt Q9EQD2) (assay: Functional assay (agonist potency, intrinsic activity) at cloned rat NPFF2 receptor). Details: Table 7, intrinsic activity.
T2 construct: The full-length NPFF2 was amplified from rat spinal cord cDNA; expressed in transfected cells; host or cells: not given
T2 sequence (Q9EQD2 whole entry): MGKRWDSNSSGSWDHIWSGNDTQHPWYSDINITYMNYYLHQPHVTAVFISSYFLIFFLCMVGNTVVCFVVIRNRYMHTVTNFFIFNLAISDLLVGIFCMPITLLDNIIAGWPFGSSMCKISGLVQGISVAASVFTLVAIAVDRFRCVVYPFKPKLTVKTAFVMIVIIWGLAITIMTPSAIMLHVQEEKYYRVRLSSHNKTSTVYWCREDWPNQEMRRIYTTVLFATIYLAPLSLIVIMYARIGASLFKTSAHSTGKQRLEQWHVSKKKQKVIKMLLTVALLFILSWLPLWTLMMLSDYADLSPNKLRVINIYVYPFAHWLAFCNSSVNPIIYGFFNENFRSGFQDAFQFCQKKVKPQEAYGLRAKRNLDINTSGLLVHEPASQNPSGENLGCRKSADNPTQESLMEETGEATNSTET
Type: cell-based
In the case of `Cc1nc(NC(=N)N)nc2ccc(C3CCCCC3)cc12` [Compound 1029A, N-(6-cyclohexyl-4-methyl-2-quinazolinyl)guanidine], the “rNPFF2 IA” value is reported as 31% NPFF. In the case of `Cc1nc(NC(=N)N)nc2ccc(Oc3ccccc3)cc12` [Compound 1032A, N-(4-methyl-6-phenoxy-2-quinazolinyl)guanidine], the “rNPFF2 IA” value is reported as 93% NPFF. With `Cc1nc(NC(=N)N)nc2ccc(CCCC(C)O)cc12` (stereo not shown) [Compound 1034A, N-(6-[1-(4-hydroxyl-pentyl)]-4-methyl-2-quinazolino)guanidine] the “rNPFF2 IA” value was 101% NPFF. For `Cc1nc(NC(=N)N)nc2cc3c(cc12)C=CCC3` [Compound 1037A, N-(4-methyl-8,9-dihydrobenzo[g]quinazolin-2-yl)guanidine], the “rNPFF2 IA” value was 71% NPFF. With `Cc1nc(NC(=N)N)nc2ccc(Cc3ccccc3)cc12` [Compound 2003A, N-(6-benzyl-4-methyl-2-quinazolinyl)guanidine] the “rNPFF2 IA” value was 89% NPFF. With `CCCCc1ccc2nc(NC(=N)N)nc(C)c2c1` [Compound 2004A, N-(6-butyl-4-methyl-2-quinazolinyl)guanidine] the “rNPFF2 IA” value was 101% NPFF. In the case of `CCCCCCc1ccc2nc(NC(=N)N)nc(C)c2c1` [Compound 2005A, N-(6-hexyl-4-methyl-2-quinazolinyl)guanidine], the “rNPFF2 IA” value is reported as 81% NPFF. In the case of `CCCCCCCc1ccc2nc(NC(=N)N)nc(C)c2c1` [Compound 2006A, N-(6-heptyl-4-methyl-2-quinazolinyl)guanidine], the “rNPFF2 IA” value is reported as 47% NPFF. `Cc1ccc2nc(NC(=N)N)cc(C)c2c1` [Compound 4001A, N-(4,6-dimethyl-2-quinolinyl)guanidine] was tested, and the “rNPFF2 IA” value was 68% NPFF. In the case of `Cc1cc(NC(=N)N)nc2ccc(-c3ccccc3)cc12` [Compound 4003A, N-(4-methyl-6-phenyl-2-quinolinyl)guanidine], the “rNPFF2 IA” value is reported as 26% NPFF. `COc1ccc2nc(NC(=N)N)cc(C)c2c1` [Compound 4004A, N-(6-methoxy-4-methyl-2-quinolinyl)guanidine] was tested, and the “rNPFF2 IA” value was 65% NPFF. For `Cc1cc(NC(=N)N)nc2cc(F)ccc12` [Compound 4007A, N-(7-fluoro-4-methyl-2-quinolinyl)guanidine], the “rNPFF2 IA” value was 17% NPFF. With `Cc1cc(C)c2c(C)cc(NC(=N)N)nc2c1` [Compound 4008A, N-(4,5,7-trimethyl-2-quinolinyl)guanidine] the “rNPFF2 IA” value was 65% NPFF. For `Cc1cc(NC(=N)N)nc2ccc3ccccc3c12` [Compound 4009A, N-(1-methylbenzo[f]quinolin-3-yl)guanidine], the “rNPFF2 IA” value was 70% NPFF. For `CCCCc1ccc2nc(NC(=N)N)cc(C)c2c1` [Compound 5001A, N-(6-butyl-4-methyl-2-quinolinyl)guanidine], the “rNPFF2 IA” value was 82% NPFF.

Same assay, conditions: agonist: IA>15%; antagonist: Ki≦1.2 mM and IA≦15% at the rat cloned NPFF receptors
`N=C(N)NCCC[C@H](NS(=O)(=O)c1c(Cl)cccc1Cl)C(=O)N[C@@H](Cc1ccccc1)C(N)=O` [Compound 1019B] was tested, and the “classification as agonist or antagonist at the NPFF2 receptor” value was “agonists”.
